Experimental data: publication PMC10118748 (Science translational medicine, 2022)

Legend:
cynomolgus PD-L1 = details: flow staining of SDGF-PDL1B1G1-expressing cells
[1] = 10 mM DTT vs PBS
murine PD-L1 = details: ref [47]; cited from earlier work
PC3 tumors [2] = details: cohort 2, ATC + durvalumab, 1 or 0.1 nmol/dose
PC3 tumors [3] = details: 14 days after treatment, 1 nmol + ATC (fig. S10)
[4] = ref [58]; cited from earlier work

Compound: CC[C@H](C)[C@@H]1NC(=O)[C@H](CCCNC(=N)N)NC(=O)[C@H](CCC(=O)O)NC(=O)[C@H](C)NC(=O)[C@@H]2CSSC[C@H](NC(=O)[C@H](Cc3c[nH]cn3)NC(=O)[C@H](C)NC(=O)[C@H](CCCNC(=N)N)NC(=O)CNC(=O)[C@H]([C@@H](C)CC)NC(=O)[C@H]([C@@H](C)O)NC(=O)[C@H](Cc3ccc(O)cc3)NC(=O)[C@H](CO)NC(=O)[C@H](CCCCN)NC1=O)C(=O)N[C@@H](CO)C(=O)NCC(=O)N[C@@H](CCC(N)=O)C(=O)N[C@@H](Cc1ccc(O)cc1)C(=O)N[C@@H](Cc1ccccc1)C(=O)N[C@@H](CC(=O)O)C(=O)N[C@@H](C(C)C)C(=O)N[C@@H](Cc1c[nH]c3ccccc13)C(=O)N[C@@H](CCCCN)C(=O)N[C@H]1CSSC[C@H](NC(=O)[C@H](Cc3c[nH]cn3)NC(=O)[C@H](C(C)C)NC(=O)[C@H](CCCCN)NC(=O)[C@@H](NC(=O)[C@H](CC(=O)O)NC(=O)[C@H](CCC(=O)O)NC(=O)[C@H](CCC(=O)O)NC(=O)[C@H](CO)NC(=O)CN)CSSC[C@@H](C(=O)N[C@@H](C)C(=O)N[C@@H](C)C(=O)N3CCC[C@H]3C(=O)O)NC(=O)[C@H](Cc3c[nH]cn3)NC(=O)[C@H](CC(=O)O)NC(=O)[C@H](CC(C)C)NC1=O)C(=O)N[C@@H](C(C)C)C(=O)N[C@@H](CCCCN)C(=O)N[C@@H](CCC(=O)O)C(=O)N[C@@H](Cc1c[nH]c3ccccc13)C(=O)N[C@@H](C)C(=O)N[C@@H](C)C(=O)N[C@@H](Cc1ccc(O)cc1)C(=O)N[C@@H](CCCCN)C(=O)N[C@@H](C)C(=O)N2 [PDL1B1G1]
- binding to cynomolgus PD-L1 relative to murine PD-L1 (cynomolgus PD-L1): stronger than seen with murine PD-L1
- RP-HPLC mobility shift upon reduction [1]: substantial mobility shift

Compound: durvalumab
- murine cross-reactivity (murine PD-L1): non-murine-cross-reactive
- tumor growth suppression (PC3 tumors [2]): No tumor growth suppression
- ATC infiltration and activation in tumor (human CD8, granzyme B) (PC3 tumors [3]): recruitment of trace numbers of ATCs infiltrating the tumor

Compound: atezolizumab
- linked adverse effect [4]: Type 1 diabetes has been reported
